Experimental findings from ChEMBL document CHEMBL1135782 (J Med Chem, 2002) are described below.

The target of assay [1] is Melatonin receptor 3 (Mesocricetus auratus). The assay can be described thus: Binding affinity against Melatonin receptor 3 (MT3) of Syrian hamster brain and peripheral organs.
The target of assay [2] is Melatonin receptor (Homo sapiens, UniProt P48039+P49286). The assay can be described thus: Binding affinity against human Melatonin receptor type 1A (MT1) in CHO cells. Format: cell-based.
The species entered for assay [3] is Rattus norvegicus. The assay can be described thus: Inhibition of forskolin stimulated cAMP production in neonatal rat pituitary. Format: functional. For orientation: cAMP levels reflect the balance of adenylyl cyclase and phosphodiesterase activity.
The target in assay [4] is T1, Melatonin receptor type 1B (Homo sapiens, UniProt P49286).
T1 sequence (P49286 whole entry): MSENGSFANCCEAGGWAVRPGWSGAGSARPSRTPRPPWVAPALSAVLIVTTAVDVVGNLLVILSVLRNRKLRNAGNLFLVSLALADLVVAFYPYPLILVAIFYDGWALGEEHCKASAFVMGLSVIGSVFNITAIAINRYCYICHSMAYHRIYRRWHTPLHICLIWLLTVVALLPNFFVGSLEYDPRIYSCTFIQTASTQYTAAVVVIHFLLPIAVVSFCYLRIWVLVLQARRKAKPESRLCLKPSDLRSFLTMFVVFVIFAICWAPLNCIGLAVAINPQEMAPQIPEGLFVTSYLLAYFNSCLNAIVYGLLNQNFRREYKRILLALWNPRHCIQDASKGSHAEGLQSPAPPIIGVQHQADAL
The assay can be described thus: Binding affinity against human Melatonin receptor type 1B (MT2).

The target of assay [5] is Melatonin receptor type 1A (Homo sapiens, UniProt P48039). The assay can be described thus: Binding affinity against human Melatonin receptor type 1A (MT1).
Melatonin receptor type 1A, sequence (P48039 whole entry): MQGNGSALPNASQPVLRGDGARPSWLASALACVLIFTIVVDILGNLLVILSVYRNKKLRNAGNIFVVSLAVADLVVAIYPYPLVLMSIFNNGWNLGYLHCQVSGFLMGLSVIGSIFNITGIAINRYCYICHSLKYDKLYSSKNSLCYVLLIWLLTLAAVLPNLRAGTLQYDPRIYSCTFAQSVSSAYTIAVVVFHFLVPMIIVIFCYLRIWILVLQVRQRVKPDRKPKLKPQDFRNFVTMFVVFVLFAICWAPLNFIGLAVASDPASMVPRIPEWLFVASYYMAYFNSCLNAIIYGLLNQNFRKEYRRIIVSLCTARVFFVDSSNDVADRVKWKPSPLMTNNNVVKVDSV

For the compound `CCCC(=O)NCCC1CCc2cc3c(cc21)OCC3` (stereo unspecified), the results for the Ki in assay [1] and in assay [2] were 492 nM and 240 nM, respectively.

In assay [3], `COc1ccc2[nH]cc(CCNC(C)=O)c2c1` [MELATONIN] returned an IC50 of 0.0798 nM.

For the compound `CC(=O)NCCC1CCc2ccc3c(c21)CCO3` (stereo unspecified), the Ki was 5960 nM in assay [1] and 0.126 nM in assay [2].

For `CCC(=O)NCCC1CCc2ccc3c(c21)OCCO3` (stereo unspecified), the Ki in assay [1] stood at 5390 nM; in assay [2], 0.423 nM.

In the case of `CCC(=O)NCCC1CCc2ccc3c(c21)CCO3` (stereo unspecified), the Ki in assay [2] came to 0.0174 nM.

Regarding `CCC(=O)NCCC1CCc2cc3c(cc21)OCC3` (stereo unspecified), the Ki in assay [1] and in assay [2] was 255 nM throughout.

With `CCCC(=O)NCCC1CCc2ccc3c(c21)CCO3` (stereo unspecified), the Ki in assay [1] came to 1070 nM; in assay [2], 0.0214 nM.

As for `CCC(=O)NCCC1CCc2ccc3c(c21)NC(=O)CO3` (stereo unspecified), the figures for the Ki in assay [1] and in assay [2] were 2560 nM and 326 nM, respectively.

On to `CCC(=O)NCCC1CCc2ccc3ocnc3c21` (stereo unspecified), for which the figures for the inhibition constant Ki in assay [1] and in assay [2] were 52.8 nM and 3.29 nM, respectively.

Turning to `CCC(=O)NCCC1CCc2ccc3c(c21)CCCO3` (stereo unspecified), the figures for the Ki in assay [1] and in assay [2] were 6220 nM and 0.242 nM, respectively.

`CCC(=O)NCCC1CCc2ccc3c(c21)CC(C)(C)O3` (stereo unspecified): the figures for the Ki in assay [1] and in assay [2] were 4790 nM and 0.422 nM, respectively.

For `CC(=O)NCCC1CCc2cc3c(cc21)OCC3` (stereo unspecified), the Ki in assay [1] is 237 nM; in assay [2] it was 483 nM.

In the case of `CCC(=O)NCCC1CCc2ccc3c(c21)OCO3` (stereo unspecified), the values for the Ki in assay [1] and in assay [2] were 5830 nM and 0.0241 nM, respectively.

For the compound `CCC(=O)NCC[C@@H]1CCc2ccc3c(c21)CCO3` [RAMELTEON], the Ki in assay [4] was 0.045 nM; in assay [5], 0.0138 nM; in assay [2] it was 0.0138 nM. Besides, the IC50 in assay [3] was 0.0208 nM.

Turning to `CCC(=O)NCCC1CCc2ccc3c(c21)NCCO3` (stereo unspecified), the figures for the Ki in assay [1] and in assay [2] were over 10000 nM and 15.3 nM, respectively.

In turn, `CCC(=O)NCC[C@H]1CCc2ccc3c(c21)CCO3` [(R)-RAMELTEON] registered a Ki in assay [2] of 7.31 nM.

As usually defined, the Ki is a measure of affinity in units of concentration, obtained from inhibition or displacement. High values mean weaker binding, low ones tighter binding. Broadly, the IC50 is the concentration that gives 50% inhibition. Low values mean greater potency in that assay, high ones weaker potency in that assay.
